How the values were obtained:
Format in all cases: in vivo, human
[1] = test system: overweight/obese subjects with Type 2 Diabetes Mellitus (T2DM); assay: Mixed-meal tolerance test (MMTT) plasma glucose AUC0-4 h, Phase 2a study
Description: (§1) Subjects were admitted to the unit on Day −2 and on Day 27. On Day −1 and on Day 28, following a minimum 10 hour fast, a blood sample for glucose metabolism panel (glucose, insulin, C-peptide, glucagon, and active GLP-1) was taken immediately prior to the subject drinking a standardized mixed meal (t=“0 minutes”). The subject then consumed a can of Ensure Plus, which is a nutritional supplement containing the components of fat, carbohydrate, and protein that make up a standard mixed-meal tolerance test (MMTT). After the meal, timed, serial blood samples were obtained for measurement of glucose and parameters related to glucose metabolism (with no additional food intake during this time). The MMTT was performed on Day-1 and Day 28.
(§2) Blood samples for the glucose metabolism panel were drawn at t=“0 minutes” (before meal) and at 15, 30, 45, 60, 90, 120, 180, and 240 minutes (±5 minutes) after consumption of the standardized meal. Additional sampling for glucagon, insulin, C-peptide, and glucose was taken at 6, 8, 12, and 24 hours (±30 minutes) post-administration (t=“0 minutes”) of the standardized meal on Day −1 and 28.
(§3) The change and percent change from baseline (Day-1) to the end of the 28 days of treatment (Day 28) in glucose AUC0-4 h were determined as measured by the MMTT. In addition, the change from baseline (Day −1) to Day 28 in active GLP-1, glucagon, insulin, and C-peptide AUC0-4 h were also measured by MMTT.

[2] = test system: overweight/obese subjects with Type 2 Diabetes Mellitus (T2DM); assay: Pancreatic and incretin hormone profiles during the MMTT
Description: as §1, §2, §3
The changes in insulin and C-peptide AUC004h from baseline to Day 28 were assessed. At baseline, the mean insulin AUC0-4 h was higher in the cotadutide group compared with the placebo group (91.768 vs 78.472 hr·mU/L, respectively). There was no meaningful difference from baseline in LS mean insulin AUC0-4 h at Day 28 between the cotadutide and placebo groups (−0.08 and 2.78 hr·mU/L, respectively; LS mean difference: −2.86 hr·mU/L; p=0.7760). At baseline, the mean C-peptide AUC0-4 h was similar in the cotadutide and placebo groups (11.278 vs 10.605 hr. μg/L, respectively). There was no meaningful difference from baseline in LS mean C-peptide AUC0-4 h at Day 28 between the cotadutide and placebo groups (0.32 and −0.29 hr. μg/L, respectively (LS mean difference: […]; p=0.4345).

[3] = test system: overweight/obese subjects with Type 2 Diabetes Mellitus (T2DM); assay: Fasting plasma glucose (FPG), Phase 2a study
Description: The change in fasting plasma glucose (FPG) from baseline to Day 28 was assessed.

[4] = Safety: adverse events, laboratory values, vital signs, ECG
Description: Blood samples were collected to evaluate anti-drug antibody (ADA) response to cotadutide. Serum samples were evaluated for ADA using a validated immunoassay. Adverse events (AEs) and serious adverse events (SAEs) were collected from the time of informed consent throughout the treatment period and including the follow-up period. AEs and SAEs were graded by severity and relationship to investigational product and SAEs were assessed for relationship to protocol procedures.

[5] = Body weight, Phase 2a study
Description: Body weight was measured during the screening period, at the start of the run—in period (Day −28), and prior to breakfast on Day 1 (predose) and Day 29. The subject should have taken off their shoes and remove bulky clothing. Calibrated scales were used.
The change and percent change in body weight from baseline (Day 1) to Day 29 (kg) were determined. The proportion of subjects achieving>5% body weight loss from baseline (Day 1) to Day 29 was also determined.

[6] = Day 28, ITT, metformin and dapagliflozin background
[7] = baseline to Day 28, vs placebo, ANCOVA

Compound: CCCCCCCCCCCCCCCC(=O)N[C@@H](CCC(=O)NCCCC[C@H](NC(=O)[C@H](CC(=O)O)NC(=O)[C@H](CO)NC(=O)[C@@H](NC(=O)[C@H](Cc1ccccc1)NC(=O)[C@@H](NC(=O)CNC(=O)[C@H](CCC(N)=O)NC(=O)[C@H](CO)NC(=O)[C@@H](N)Cc1c[nH]cn1)[C@@H](C)O)[C@@H](C)O)C(=O)N[C@@H](CO)C(=O)N[C@@H](CCC(=O)O)C(=O)N[C@@H](Cc1ccc(O)cc1)C(=O)N[C@@H](CC(C)C)C(=O)N[C@@H](CC(=O)O)C(=O)N[C@@H](CO)C(=O)N[C@@H](CCC(=O)O)C(=O)N[C@@H](CCCNC(=N)N)C(=O)N[C@@H](C)C(=O)N[C@@H](CCCNC(=N)N)C(=O)N[C@@H](CC(=O)O)C(=O)N[C@@H](Cc1ccccc1)C(=O)N[C@H](C(=O)N[C@@H](C)C(=O)N[C@@H](Cc1c[nH]c2ccccc12)C(=O)N[C@@H](CC(C)C)C(=O)N[C@@H](CCC(=O)O)C(=O)N[C@@H](C)C(=O)NCC(=O)NCC(=O)O)C(C)C)C(=O)O [Cotadutide]
- Plasma glucose AUC0-4 h after MMTT, Day 28, mean [1, 6]: 523.72 mg·h/dL
- Plasma glucose AUC0-4 h after MMTT, Day 28, median [1, 6]: 481.57 mg·h/dL
- Plasma glucose AUC0-4 h after MMTT, change from baseline, LS mean ([1]; baseline to Day 28, ANCOVA): -154.37 mg·h/dL
- Plasma glucose AUC0-4 h after MMTT, percent change from baseline, LS mean ([1]; baseline to Day 28, ANCOVA): −22.30%
- Plasma glucose AUC0-4 h after MMTT, change from baseline, mean ([1]; baseline to Day 28, ITT): -151.29 mg·h/dL
- Plasma glucose AUC0-4 h after MMTT, change from baseline, median ([1]; baseline to Day 28, ITT): -148.29 mg·h/dL
- Plasma glucose AUC0-4 h after MMTT, percent change from baseline, mean ([1]; baseline to Day 28, ITT): −22.03%
- Plasma glucose AUC0-4 h after MMTT, percent change from baseline, median ([1]; baseline to Day 28, ITT): −25.55%
- Plasma glucose AUC0-4 h after MMTT, change from baseline, LS mean difference [1, 7]: -143.09 mg·h/dL
- Plasma glucose AUC0-4 h after MMTT, percent change from baseline, LS mean difference [1, 7]: −22.17%
- C-peptide AUC0-4 h, change from baseline, LS mean ([2]; Day 28): 0.32 µg·h/L
- GLP-1 (active form) AUC0-4 h, change from baseline, LS mean ([2]; Day 28): -131.67 ng·h/L
- Glucagon AUC0-4 h, change from baseline, LS mean ([2]; Day 28): -12.52 ng·h/L
- Insulin AUC0-4 h, change from baseline, LS mean ([2]; Day 28): −0.08 hr·mU/L
- GLP-1 (active form) AUC0-4 h, change from baseline, LS mean difference ([2]; Day 28, vs placebo): -0.73 ng·h/L
- Glucagon AUC0-4 h, change from baseline, LS mean difference ([2]; Day 28, vs placebo): 11.3 ng·h/L
- Insulin AUC0-4 h, change from baseline, LS mean difference ([2]; Day 28, vs placebo): −2.86 hr·mU/L
- Fasting plasma glucose, Day 28 (LOCF), mean ([3]; Day 28 (LOCF), ITT): 115.33 mg/dL
- Fasting plasma glucose, Day 28 (LOCF), median ([3]; Day 28 (LOCF), ITT): 106.32 mg/dL
- Fasting plasma glucose, change from baseline (LOCF), mean ([3]; baseline to Day 28): -34.24 mg/dL
- Fasting plasma glucose, change from baseline (LOCF), median ([3]; baseline to Day 28): -43.25 mg/dL
- Fasting plasma glucose, change from baseline (LOCF), LS mean ([3]; baseline to Day 28, ANCOVA): -34.15 mg/dL
- Fasting plasma glucose, change from baseline (LOCF), LS mean difference ([3]; baseline to Day 28, vs placebo): -37.73 mg/dL
- Incidence of treatment-emergent adverse events (TEAEs) ([4]; As-treated, 28 days): 52.0%
- Subjects with a TEAE that led to discontinuation of investigational product ([4]; abdominal pain and vomiting): Two
- Incidence of investigational product-related TEAEs ([4]; as judged by the investigator): 40.0%
- Heart rate ([4]; compared with the placebo group): increased heart rate was observed
- Blood pressure (BP) ([4]; in vivo): No meaningful changes
- Hematology, serum chemistry, or urinalysis laboratory values ([4]; in vivo): no clinically meaningful trends
- Severity of TEAEs ([4]; in vivo): mild (Grade 1) or moderate (Grade 2)
- Electrocardiogram (ECG) parameters ([4]; with the exception of heart rate): no clinically meaningful trends
- Body weight, Day 29 change from baseline, mean ([5]; baseline (Day 1) to Day 29): -3.06 kg
- Body weight, Day 29 change from baseline, median ([5]; baseline (Day 1) to Day 29): -2.85 kg
- Body weight, Day 29 percent change from baseline, mean ([5]; baseline (Day 1) to Day 29): −3.30%
- Body weight, Day 29 percent change from baseline, median ([5]; baseline (Day 1) to Day 29): −3.14%
- Proportion of subjects achieving >5% body weight loss ([5]; baseline to Day 29, 3 subjects): 12.5%
- Body weight, Day 29 change from baseline, LS mean ([5]; baseline to Day 29, ANCOVA): -3.16 kg
- Body weight, Day 29 percent change from baseline, LS mean ([5]; baseline to Day 29, ANCOVA): −3.33%
- Body weight, Day 29 change from baseline, LS mean difference ([5]; baseline to Day 29, vs placebo): -2.13 kg
- Body weight, Day 29 percent change from baseline, LS mean difference ([5]; baseline to Day 29, vs placebo): −2.26%
